Measured values: ChEMBL document CHEMBL4673372, “1,2,3-triazole-thiazole hybrids: Synthesis, in vitro antimicrobial activity and antibiofilm studies” (Bioorg Med Chem Lett, 2021)
≈ marks a conversion by molar mass, not a printed value.

How the values were obtained:
Escherichia coli [1] = test: Inhibition of biofilm formation in Escherichia coli MTCC 739 incubated for 24 hrs by crystal violet staining based microtiter plate method; format: functional, organism-based
Candida parapsilosis [2] = test: Antifungal activity against Candida parapsilosis MTCC 1745; format: functional; settings: Lodderomyces parapsilosis
Escherichia coli [3] = test: Antibacterial activity against Escherichia coli MTCC 739 assessed as inhibition of bacterial growth by microtiter broth dilution method; format: functional
Candida albicans [4] = test: Antifungal activity against Candida albicans MTCC 3958; format: functional
Micrococcus luteus [5] = test: Bactericidal activity against Micrococcus luteus MTCC 2470; format: functional
Pseudomonas aeruginosa [6] = test: Inhibition of biofilm formation in Pseudomonas aeruginosa MTCC 2453 incubated for 24 hrs by crystal violet staining based microtiter plate method; format: functional, organism-based
[Candida] aaseri [7] = Antifungal activity against Candida aaseri MTCC 1962; format: functional; settings: Yamadazyma aaseri
Pichia kudriavzevii [8] = test: Antifungal activity against Candida krusei MTCC 3020; format: functional
Micrococcus luteus [9] = test: Antibacterial activity against Micrococcus luteus MTCC 2470 assessed as inhibition of bacterial growth by microtiter broth dilution method; format: functional
Candida albicans [10] = test: Antifungal activity against Candida albicans MTCC 854; format: functional
Staphylococcus aureus [11] = test: Inhibition of biofilm formation in Staphylococcus aureus […] incubated for 24 hrs by crystal violet staining based microtiter plate method; format: functional, organism-based
Candida albicans [12] = test: Antifungal activity against Candida albicans MTCC 4748; format: functional
Pseudomonas aeruginosa [13] = test: Antibacterial activity against Pseudomonas aeruginosa MTCC 2453 assessed as inhibition of bacterial growth by microtiter broth dilution method; format: functional
Raoultella planticola [14] = test: Inhibition of biofilm formation in Klebsiella planticola MTCC 530 incubated for 24 hrs by crystal violet staining based microtiter plate method; format: functional, organism-based
Raoultella planticola [15] = test: Antibacterial activity against Klebsiella planticola MTCC 530 assessed as inhibition of bacterial growth by microtiter broth dilution method; format: functional
[16] = Cytotoxicity against human THP-1 cells; format: cell-based
Bacillus subtilis [17] = test: Bactericidal activity against Bacillus subtilis MTCC 121; format: functional
Candida albicans [18] = test: Antifungal activity against Candida albicans MTCC 1637; format: functional
Nakaseomyces glabratus [19] = test: Antifungal activity against Candida glabrata MTCC 3019; format: functional
[20] = Selectivity index, ratio of CC50 for human THP-1 cells to MIC for Staphylococcus aureus MTCC 96; format: toxicity
Raoultella planticola [21] = test: Bactericidal activity against Klebsiella planticola MTCC 530; format: functional
Staphylococcus aureus [22] = test: Bactericidal activity against Staphylococcus aureus MTCC 96; format: functional
THP-1 [23] = test: Cytotoxicity against human THP-1 cells assessed as reduction in cell viability at 200 uM by MTT assay; format: cell-based; settings: thp-1, 200 µM
Candida albicans [24] = test: Antifungal activity against Candida albicans MTCC 3018; format: functional
Pichia sporocuriosa [25] = test: Fungicidal activity against Issatchenkia hanoiensis MTCC 4755; format: functional
Bacillus subtilis [26] = test: Antibacterial activity against Bacillus subtilis MTCC 121 assessed as inhibition of bacterial growth by microtiter broth dilution method; format: functional
Candida albicans [27] = test: Inhibition of biofilm formation in Candida albicans MTCC 3017 incubated for 24 hrs by crystal violet staining based microtiter plate method; format: functional, organism-based; settings: Candida albicans, MTCC 3017, 24 h; read-out: IC50
Staphylococcus aureus [28] = test: Antibacterial activity against Staphylococcus aureus MTCC 96 assessed as inhibition of bacterial growth by microtiter broth dilution method; format: functional
Candida albicans [29] = test: Fungicidal activity against Candida albicans MTCC 854; format: functional
THP-1 [30] = test: Cytotoxicity against human THP-1 cells assessed as cell damage at 200 uM by LDH assay; format: cell-based; settings: thp-1, 200 µM
Micrococcus luteus [31] = test: Inhibition of biofilm formation in Micrococcus luteus MTCC 2470 incubated for 24 hrs by crystal violet staining based microtiter plate method; format: functional, organism-based
Candida albicans [32] = test: Antifungal activity against Candida albicans MTCC 183; format: functional
Pseudomonas aeruginosa [33] = test: Bactericidal activity against Pseudomonas aeruginosa MTCC 2453; format: functional
Candida albicans [34] = test: Fungicidal activity against Candida albicans MTCC 183; format: functional
Bacillus subtilis [35] = test: Inhibition of biofilm formation in Bacillus subtilis MTCC 121 incubated for 24 hrs by crystal violet staining based microtiter plate method; format: functional, organism-based
Staphylococcus aureus [36] = test: Inhibition of biofilm formation in Staphylococcus aureus MLS16 MTCC 2940 incubated for 24 hrs by crystal violet staining based microtiter plate method; format: functional, organism-based
Staphylococcus aureus [37] = test: Antibacterial activity against Staphylococcus aureus MLS16 MTCC 2940 assessed as inhibition of bacterial growth by microtiter broth dilution method; format: functional
Candida albicans [38] = test: Antifungal activity against Candida albicans MTCC 227; format: functional
Pichia sporocuriosa [39] = test: Antifungal activity against Issatchenkia hanoiensis MTCC 4755; format: functional
Escherichia coli [40] = test: Bactericidal activity against Escherichia coli MTCC 739; format: functional
Staphylococcus aureus [41] = test: Bactericidal activity against Staphylococcus aureus MLS16 MTCC 2940; format: functional
Candida albicans [42] = test: Fungicidal activity against Candida albicans MTCC 3018; format: functional
Candida parapsilosis [43] = test: Fungicidal activity against Candida parapsilosis MTCC 1745; format: functional; settings: Lodderomyces parapsilosis
Nakaseomyces glabratus [44] = test: Fungicidal activity against Candida glabrata MTCC 3019; format: functional
Candida albicans [45] = test: Fungicidal activity against Candida albicans MTCC 4748; format: functional
Pichia kudriavzevii [46] = test: Fungicidal activity against Candida krusei MTCC 3020; format: functional
Candida albicans [47] = test: Fungicidal activity against Candida albicans MTCC 227; format: functional
[Candida] aaseri [48] = Fungicidal activity against Candida aaseri MTCC 1962; format: functional; settings: Yamadazyma aaseri
Candida albicans [49] = test: Fungicidal activity against Candida albicans MTCC 3958; format: functional
Candida albicans [50] = test: Fungicidal activity against Candida albicans MTCC 1637; format: functional
[51] = Escherichia coli, MTCC 739, 24 h, read-out: IC50
[52] = Pseudomonas aeruginosa, MTCC 2453, 24 h, read-out: IC50
[53] = Klebsiella planticola, MTCC 530, 24 h, read-out: IC50
[54] = Bacillus subtilis, MTCC 121, 24 h, read-out: IC50

## COc1ccc(-n2cc(COc3ccc(/C=N/Nc4nc(-c5cc6ccccc6oc5=O)cs4)cc3)nn2)cc1
Escherichia coli [1]; [51]
  IC50: 31.3 µM
Candida parapsilosis [2]
  MIC: > 227 µM
Escherichia coli [3]
  MIC: > 227 µM
Candida albicans [4]
  MIC: > 227 µM
Micrococcus luteus [5]
  MBC: 14.1 µM (≈ 7.76 µg/mL)
Pseudomonas aeruginosa [6]; [52]
  IC50: 19.5 µM
[Candida] aaseri [7]
  MIC: > 227 µM
Pichia kudriavzevii [8]
  MIC: > 227 µM
Micrococcus luteus [9]
  MIC: 7 µM (≈ 3.85 µg/mL)
Candida albicans [10]
  MIC: 7.1 µM (≈ 3.91 µg/mL)
Staphylococcus aureus [11]
  IC50: Not Active
Candida albicans [12]
  MIC: > 227 µM
Pseudomonas aeruginosa [13]
  MIC: 14.1 µM (≈ 7.76 µg/mL)
Raoultella planticola [14]; [53]
  IC50: 35.7 µM
Raoultella planticola [15]
  MIC: 14.1 µM (≈ 7.76 µg/mL)
[16]
  CC50: 36.3 µM
Bacillus subtilis [17]
  MBC: 14.1 µM (≈ 7.76 µg/mL)
Candida albicans [18]
  MIC: > 227 µM
Nakaseomyces glabratus [19]
  MIC: > 227 µM
[20]
  selectivity ratio: 2.58
Raoultella planticola [21]
  MBC: 28.3 µM (≈ 15.6 µg/mL)
Staphylococcus aureus [22]
  MBC: 28.3 µM (≈ 15.6 µg/mL)
THP-1 [23]
  Activity: Toxic
Candida albicans [24]
  MIC: > 227 µM
Pichia sporocuriosa [25]
  MFC: 14.2 µM (≈ 7.82 µg/mL)
Bacillus subtilis [26]
  MIC: 7 µM (≈ 3.85 µg/mL)
Candida albicans [27]
  IC50: 63.5 µM
Staphylococcus aureus [28]
  MIC: 14.1 µM (≈ 7.76 µg/mL)
Candida albicans [29]
  MFC: 14.2 µM (≈ 7.82 µg/mL)
THP-1 [30]
  Activity: Toxic
Micrococcus luteus [31]
  IC50: Not Active
Candida albicans [32]
  MIC: 14.2 µM (≈ 7.82 µg/mL)
Pseudomonas aeruginosa [33]
  MBC: 56.6 µM (≈ 31.2 µg/mL)
Candida albicans [34]
  MFC: 56.7 µM (≈ 31.2 µg/mL)
Bacillus subtilis [35]; [54]
  IC50: 6.6 µM
Staphylococcus aureus [36]
  IC50: Not Active
Staphylococcus aureus [37]
  MIC: > 227 µM
Candida albicans [38]
  MIC: > 227 µM
Pichia sporocuriosa [39]
  MIC: 7.1 µM (≈ 3.91 µg/mL)

## COc1ccc(-n2cc(COc3ccc(/C=N/Nc4nc(-c5cc6cccc(OC)c6oc5=O)cs4)cc3)nn2)cc1
Escherichia coli [1]; [51]
  IC50: 68 µM
Candida parapsilosis [2]
  MIC: > 215 µM
Escherichia coli [3]
  MIC: 6.7 µM (≈ 3.89 µg/mL)
Candida albicans [4]
  MIC: > 215 µM
Micrococcus luteus [5]
  MBC: 13.4 µM (≈ 7.78 µg/mL)
Pseudomonas aeruginosa [6]; [52]
  IC50: 47.3 µM
[Candida] aaseri [7]
  MIC: > 215 µM
Pichia kudriavzevii [8]
  MIC: > 215 µM
Micrococcus luteus [9]
  MIC: 3.71 µM (≈ 2.15 µg/mL)
Candida albicans [10]
  MIC: > 215 µM
Staphylococcus aureus [11]; Staphylococcus aureus, MTCC 92, 24 h, read-out: IC50
  IC50: 13.5 µM
Candida albicans [12]
  MIC: > 215 µM
Pseudomonas aeruginosa [13]
  MIC: 13.4 µM (≈ 7.78 µg/mL)
Raoultella planticola [14]; [53]
  IC50: 40.2 µM
Raoultella planticola [15]
  MIC: 3.2 µM (≈ 1.86 µg/mL)
[16]
  CC50: 34.5 µM
Bacillus subtilis [17]
  MBC: 13.4 µM (≈ 7.78 µg/mL)
Candida albicans [18]
  MIC: > 215 µM
Nakaseomyces glabratus [19]
  MIC: > 215 µM
[20]
  selectivity ratio: 9.28
Raoultella planticola [21]
  MBC: 6.7 µM (≈ 3.89 µg/mL)
Staphylococcus aureus [22]
  MBC: 13.4 µM (≈ 7.78 µg/mL)
THP-1 [23]
  Activity: Toxic
Candida albicans [24]
  MIC: > 215 µM
Pichia sporocuriosa [25]
  MFC: 13.4 µM (≈ 7.78 µg/mL)
Bacillus subtilis [26]
  MIC: 3.71 µM (≈ 2.15 µg/mL)
Candida albicans [27]
  IC50: 35.6 µM
Escherichia coli [40]
  MBC: 6.7 µM (≈ 3.89 µg/mL)
Staphylococcus aureus [28]
  MIC: 3.71 µM (≈ 2.15 µg/mL)
THP-1 [30]
  Activity: Toxic
Micrococcus luteus [31]; Micrococcus luteus, MTCC 2470, 24 h, read-out: IC50
  IC50: 155 µM
Candida albicans [32]
  MIC: 13.4 µM (≈ 7.78 µg/mL)
Pseudomonas aeruginosa [33]
  MBC: 28.8 µM (≈ 16.7 µg/mL)
Candida albicans [34]
  MFC: 26.9 µM (≈ 15.6 µg/mL)
Bacillus subtilis [35]; [54]
  IC50: 16.6 µM
Staphylococcus aureus [36]
  IC50: Not Active
Staphylococcus aureus [37]
  MIC: 3.71 µM (≈ 2.15 µg/mL)
Candida albicans [38]
  MIC: > 215 µM
Staphylococcus aureus [41]
  MBC: 13.4 µM (≈ 7.78 µg/mL)
Pichia sporocuriosa [39]
  MIC: 6.7 µM (≈ 3.89 µg/mL)

## Clc1ccc(COC(Cn2ccnc2)c2ccc(Cl)cc2Cl)c(Cl)c1 (stereo unspecified) [MICONAZOLE]
Escherichia coli [1]
  IC50: Not Active
Candida parapsilosis [2]
  MIC: 18.7 µM (≈ 7.78 µg/mL)
Candida albicans [42]
  MFC: 18.7 µM (≈ 7.78 µg/mL)
Candida albicans [4]
  MIC: 18.7 µM (≈ 7.78 µg/mL)
Pseudomonas aeruginosa [6]
  IC50: Not Active
[Candida] aaseri [7]
  MIC: 18.7 µM (≈ 7.78 µg/mL)
Pichia kudriavzevii [8]
  MIC: 18.7 µM (≈ 7.78 µg/mL)
Candida parapsilosis [43]
  MFC: 18.7 µM (≈ 7.78 µg/mL)
Candida albicans [10]
  MIC: 18.7 µM (≈ 7.78 µg/mL)
Staphylococcus aureus [11]
  IC50: Not Active
Candida albicans [12]
  MIC: 18.7 µM (≈ 7.78 µg/mL)
Raoultella planticola [14]
  IC50: Not Active
Candida albicans [18]
  MIC: 18.7 µM (≈ 7.78 µg/mL)
Nakaseomyces glabratus [19]
  MIC: 18.7 µM (≈ 7.78 µg/mL)
Candida albicans [24]
  MIC: 18.7 µM (≈ 7.78 µg/mL)
Pichia sporocuriosa [25]
  MFC: 18.7 µM (≈ 7.78 µg/mL)
Candida albicans [27]
  IC50: 2.5 µM
Nakaseomyces glabratus [44]
  MFC: 18.7 µM (≈ 7.78 µg/mL)
Candida albicans [45]
  MFC: 18.7 µM (≈ 7.78 µg/mL)
Candida albicans [29]
  MFC: 18.7 µM (≈ 7.78 µg/mL)
Pichia kudriavzevii [46]
  MFC: 18.7 µM (≈ 7.78 µg/mL)
Micrococcus luteus [31]
  IC50: Not Active
Candida albicans [32]
  MIC: 18.7 µM (≈ 7.78 µg/mL)
Candida albicans [47]
  MFC: 18.7 µM (≈ 7.78 µg/mL)
[Candida] aaseri [48]
  MFC: 18.7 µM (≈ 7.78 µg/mL)
Candida albicans [34]
  MFC: 18.7 µM (≈ 7.78 µg/mL)
Bacillus subtilis [35]
  IC50: Not Active
Candida albicans [49]
  MFC: 18.7 µM (≈ 7.78 µg/mL)
Staphylococcus aureus [36]
  IC50: Not Active
Candida albicans [38]
  MIC: 18.7 µM (≈ 7.78 µg/mL)
Candida albicans [50]
  MFC: 18.7 µM (≈ 7.78 µg/mL)
Pichia sporocuriosa [39]
  MIC: 18.7 µM (≈ 7.78 µg/mL)
